ChEMBL document CHEMBL1781978, “A highly conjugated dihydroxylated C28 steroid from a myxobacterium” (J Nat Prod, 2011)

Test system: SW480
Experiment: Cytotoxicity against human SW480 cells by MTT assay
Format: functional, cell-based

CC(C)[C@@H](C)/C=C/[C@@H](C)[C@H]1CCC2=C3C=CC4=CC(=O)CC[C@]4(C)[C@@]3(O)[C@H](O)C[C@@]21C
IC50: 10 µM
